Results taken from patent publication US20250002865A1, “METHOD FOR PRODUCING ORGANISM, AND METHOD FOR PROMOTING DIFFERENTIATION OF HUMAN ADIPOSE-DERIVED STEM CELLS INTO VASCULAR ENDOTHELIAL CELLS” (TOPPAN Holdings Inc., priority 2021, published 2025).
“And” between values parts separate entries of the source, which are not always exact repeats. Equal values may be shown once.

Tests used:
[1] = test system: human adipose stem cell (ADSC); settings: 5 μM in EGM-2, 7 days
Protocol: The culture medium was changed every 2 days, and culture was carried out for 7 days to obtain a tissue construct. Thereafter, the ADSC was gently detached while leaving cell surface proteins, by incubation for 5 minutes using 0.25% Trypsin, recovered from the dish, and suspended in 1 mL of DMEM, and the number of cells was counted.
The ratio of vascular endothelial cells in the tissue construct was analyzed by the flow cytometry analysis using BD Facsmelody (registered trademark) cell sorter (Becton, Dickinson and Company). The tissue construct recovered as described above was centrifuged (100 g, 5 minutes, 4° C.). […] Thereafter, cells were centrifuged (100 g, 5 minutes, 4° C.) to wash the cells, and the pelleted cells were suspended in a buffer, and 10,000 events were recorded. Further, an isotype control for the conjugated antibody was measured simultaneously. […]
The ratio of vascular endothelial cells in the sample was analyzed by the flow cytometry analysis using BD Facsmelody (registered trademark) cell sorter (Becton, Dickinson and Company). […] Thereafter, cells were centrifuged (100 g, 5 minutes, 4° C.) to wash the cells, and the pelleted cells were suspended in a buffer, and 10,000 events were recorded. Further, an isotype control for the conjugated antibody was measured simultaneously. […]

[2] = test system: human adipose stem cell (ADSC); settings: 5 μM in EGM-2 for 7 days, then 24 hours on Matrigel; compared with EGM-2 without ALK5 inhibitor
Protocol: The culture medium was changed every 2 days, culture was carried out for 7 days. Thereafter, the ADSC was separated from the dish using trypsin/EDTA and suspended in 1 mL of DMEM, and the number of cells was counted. Further, the recovered ADSC was seeded on a 24-well plate previously coated with Matrigel at concentrations of 1.0×10^5 cells/dish, 1.5×10^5 cells/dish, and 2.0×10^5 cells/dish, and incubated at 37° C. for 24 hours. Thereafter, the morphology of the tissue construct was evaluated with a phase contrast microscope.

[3] = test system: human adipose stem cell (ADSC); settings: 5 μM in EGM-2, 7 days, compared with EGM-2 without ALK5 inhibitor
Protocol: The culture medium was changed every 2 days, and culture was carried out for 7 days after seeding to obtain a tissue construct.
Fluorescence imaging of the tissue construct was carried out according to the following procedure. A transwell containing the obtained tissue construct was transferred to a 24-well plate. After washing with 2 mL of PBS, the tissue was fixed overnight under the condition of 4° C. using 2 mL of 4% PFA. Washing was carried out three times using 2 mL of PBS. Cells were subjected to permeabilization treatment for 7 minutes under room temperature conditions by using 0.05% Triton/PBS (500 μL in the transwell and 500 μL outside the transwell), and washing was carried out three times using 2 mL of PBS.
The tissue was subjected to blocking treatment for 1 hour under room temperature conditions by using a 1% BSA/PBS solution (500 μL in the transwell and 500 μL outside the transwell). The BSA solution was aspirated, and 100 μL of a primary antibody solution (an anti-CD31 antibody diluted 100-fold in a 1% BSA/PBS solution) was added (50 μL in the transwell and 50 μL outside the transwell). A wet tissue paper was placed under the plate, and the plate was covered with an aluminum foil and incubated overnight under the condition of 4° C. […]

[4] = test system: cell balls of mature adipocytes and cells recovered from ADSC tissue construct
Protocol: Isolated ADSC was suspended in an EGM-2 medium, seeded in a 10-cm dish, and incubated at 37° C. The culture medium was changed every 2 days, and culture was carried out for 7 days to obtain a tissue construct. From this tissue construct, cells including ADSC, ADSC-derived vascular endothelial cells, and vascular endothelial progenitor cells were recovered.
The total number of cells of the tissue construct (cell ball) used was 4.0×10^4 cells/ball, and the mature adipocytes and the above-described recovered cells were used a ratio of 3:2.5 for the production.
The cell ball seeded in the low-adhesion 96-well plate was incubated in a 37° C. incubator for 15 minutes to carry out gelation, and 300 μL of EGM-2 or KBM was added thereto. […] In addition, EGM-2 or KBM, containing only insulin of a final concentration of 10 μg/mL and an ALK-5 inhibitor of 5 μM, was used as a control.
(§1) After 24 hours of culture, cells were transferred to a low-adhesion 24-well plate (IWAKI #4820-800LP), and 2 mL of the above EGM-2 or KBM was added thereto. The culture medium was changed every 2 to 3 days until the 7th day of culture.
The fluorescence imaging of the tissue construct was carried out as in Production Example 4, except that an anti-von Willebrand factor (vWF) antibody diluted 100-fold in a 1% BSA/PBS solution was used as a primary antibody solution and an Alexa Fluor 647-labeled anti-rabbit IgG antibody solution diluted 200-fold in 1% BSA/PBS solution was used as a secondary antibody solution. The vWF was used as a marker for vascular endothelial cells. In addition, for observation, the cell ball was placed directly on a complete plate of a Confocal Quantitative Image Cytometer CQ1 (Yokogawa Electric Corporation), and the stained tissue construct was observed using the Confocal Quantitative Image Cytometer CQ1 with laser excitation light at 640 nm.

[5] = test system: cell balls of mature adipocytes and cells recovered from ADSC tissue construct; settings: VEGF 50 ng/mL in EGM-2 with 10 μg/mL insulin and 5 μM ALK-5 inhibitor, 7 days
Protocol: Regarding the produced tissue construct, 5 μL (equivalent to one cell ball) of the mixture (equivalent to 40 cell balls) was seeded on each well of a low-adhesion 96-well plate (IWAKI #4860-800LP).
The cell ball seeded in the low-adhesion 96-well plate was incubated in a 37° C. incubator for 15 minutes to carry out gelation, and 300 μL of EGM-2 containing insulin of a final concentration of 10 μg/mL, an AKL-5 inhibitor of 5 μM, and VEGF of 50 ng/mL was added thereto.
as §1
The fluorescence imaging of the tissue construct was carried out as in Production Example 4, except that various primary antibody solutions and the corresponding secondary antibody solutions were used. […]
For observation, the cell ball was placed directly on a complete plate of a Confocal Quantitative Image Cytometer CQ1 (Yokogawa Electric Corporation), and the stained tissue construct was observed using the Confocal Quantitative Image Cytometer CQ1. […]

| Compound | ratio of vascular endothelial cells (CD31+) based on number of total cells recovered [1] | lumen formation / vascular network on Matrigel [2] | vascular network formation by CD31 staining [3] | vascular network, number of branches of blood vessels, vs control without VEGF ([4]; VEGF 0.5, 20, 50 or 100 ng/mL in EGM-2 or KBM with 10 μg/mL insulin and 5 μM ALK-5 inhibitor, 7 days) | vascular network, number of branches of blood vessels, vs culture medium containing leptin ([4]; VEGF-containing medium vs leptin 1 μg/mL, both with insulin and 5 μM ALK-5 inhibitor, 7 days) | vascular network, amount of blood vessels among VEGF concentrations ([4]; culture medium containing more than 20 ng/mL of VEGF) | proportion of vWF-positive vs CD34-positive cells among total CD31-positive cells [5] | vascular network formation in cell ball [5] |
| --- | --- | --- | --- | --- | --- | --- | --- | --- |
| Cc1cccc(-c2n[nH]cc2-c2ccc3ncccc3n2)n1 [ALK5 inhibitor, 2-[3-(6-methyl-2-pyridinyl)-1H-pyrazol-4-yl]-1,5-naphthyridine] | 29.29% and 32.4% | lumen formation is further progressed | a vascular network in which the number of branches is larger is formed | – | – | – | – | – |
| VEGF | – | – | – | the number of branches of blood vessels is large as compared with the control cell ball | the number of branches of blood vessels is large as compared with the cell ball cultured in a culture medium containing leptin | a vascular network having still more blood vessels was formed | the proportion of vWF-positive cells with respect to the total CD31-positive cells was higher than the proportion of CD34-positive cells | a vascular network was also formed |
